Laboratory results from PubChem BioAssay (NCI).
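Grown in 96-well plates, cells were treated for 48 hours with each compound at five concentrations. Insufficient inhibition: endpoint recorded as highest concentration tested. GI50 marks 50% less growth. TGI: total growth inhibition.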

Columns and labels:
Test in all cases: NCI-60 cell line screen, 48 h
TK-10 renal = system: TK-10 renal
CAKI-1 renal = system: CAKI-1 renal
MALME-3M melanoma = system: MALME-3M melanoma
OVCAR-8 ovarian = system: OVCAR-8 ovarian
SF-295 CNS = system: SF-295 CNS
HOP-62 NSCLC = system: HOP-62 NSCLC
LOX IMVI melanoma = system: LOX IMVI melanoma
A549 NSCLC = system: A549 NSCLC
SW-620 colon = system: SW-620 colon
SF-268 CNS = system: SF-268 CNS

Compound	GI50 (TK-10 renal)	TGI (TK-10 renal)	GI50 (CAKI-1 renal)	TGI (CAKI-1 renal)	GI50 (MALME-3M melanoma)	TGI (MALME-3M melanoma)	GI50 (OVCAR-8 ovarian)	TGI (OVCAR-8 ovarian)	GI50 (SF-295 CNS)	TGI (SF-295 CNS)	GI50 (HOP-62 NSCLC)	TGI (HOP-62 NSCLC)	GI50 (LOX IMVI melanoma)	TGI (LOX IMVI melanoma)	GI50 (A549 NSCLC)	TGI (A549 NSCLC)	GI50 (SW-620 colon)	TGI (SW-620 colon)	GI50 (SF-268 CNS)	TGI (SF-268 CNS)
COc1ccc2c(c1)C(=O)c1c-2c(OCCN2CCCCC2)nc2ccc(OC)cc12	4.51 µM	16.7 µM	0.342 µM	2.96 µM	1.27 µM	4.47 µM	0.601 µM	4.67 µM	0.529 µM	15.2 µM	0.595 µM	11.2 µM	0.42 µM	1.73 µM	0.674 µM	2.16 µM	0.269 µM	2.19 µM	0.461 µM	9.46 µM
Nc1nc(Cl)nc2c1ncn2C1OC(CO)C(O)C1O (stereo not given)	> 100 µM	> 100 µM	4.3 µM	> 100 µM	> 100 µM	> 100 µM	0.403 µM	> 100 µM	> 100 µM	> 100 µM	3.36 µM	> 100 µM	15.2 µM	> 100 µM	4.41 µM	> 100 µM	36.1 µM	> 100 µM	10.7 µM	> 100 µM
O=C(O)c1ccccc1C1c2ccc(Cl)cc2Oc2cc(Cl)ccc21		> 100 µM		> 100 µM		> 100 µM		> 100 µM		> 100 µM		> 100 µM		> 100 µM		> 100 µM		> 100 µM		> 100 µM
c1ccc(N2N=NC3C4CC(C5c6ccccc6C45)C32)cc1 (stereo not given)		> 100 µM		> 100 µM		69.4 µM		> 100 µM		> 100 µM		> 100 µM		39.6 µM		> 100 µM		> 100 µM		> 100 µM
